Measured values reported in the NIST ThermoML archive (doi:10.1021/je700339f).

Assay: xn = mol fraction of the nth substance listed
Settings: 298 K, Liquid

ClCCCCCCCl [1,6-dichlorohexane] + CC(=O)N(C)C
mass density [kg/m3]
Settings	x2 = 0.1002	x2 = 0.1985	x2 = 0.3002	x2 = 0.404	x2 = 0.4943	x2 = 0.6007	x2 = 0.7006	x2 = 0.8012	x2 = 0.8994
100 kPa	1054.5	1045.2	1034.5	1023.1	1012.3	998.8	985.3	970.4	954.6
500 kPa	1054.7	1045.5	1034.8	1023.4	1012.5	999	985.6	970.7	954.8
1000 kPa	1055.1	1045.9	1035.2	1023.7	1012.9	999.3	985.9	971	955.1
1500 kPa	1055.5	1046.2	1035.6	1024.1	1013.3	999.6	986.2	971.3	955.4
2000 kPa	1055.8	1046.6	1035.9	1024.4	1013.6	1000	986.5	971.6	955.7
2500 kPa	1056.2	1046.9	1036.2	1024.8	1013.9	1000.3	987	972	956.1
2900 kPa	–	–	–	–	1014.3	–	–	–	–
3000 kPa	1056.5	1047.3	1036.6	1025.1	–	1000.6	987.2	972.3	956.4
3500 kPa	1056.9	1047.6	1036.8	1025.4	1014.6	1001	987.6	972.6	956.6
4000 kPa	1057.2	1047.9	1037.2	1025.7	1014.9	1001.4	987.9	972.9	957
4500 kPa	1057.6	1048.3	1037.5	1026.1	1015.3	1001.6	988.2	973.2	957.2
5000 kPa	1057.9	1048.6	1037.9	1026.5	1015.6	1002	988.5	973.5	957.6
5500 kPa	1058.2	1049	1038.2	1026.8	1015.9	1002.3	988.9	973.8	957.9
6000 kPa	1058.6	1049.3	1038.5	1027.1	1016.3	1002.6	989.1	974.2	958.2
6500 kPa	1058.9	1049.6	1038.9	1027.4	1016.6	1002.9	989.5	974.4	958.5
7000 kPa	1059.3	1049.9	1039.2	1027.7	1016.9	1003.3	989.7	974.7	958.8
7500 kPa	1059.6	1050.2	1039.5	1028.1	1017.2	1003.6	990.1	975	959
8000 kPa	1060	1050.6	1039.9	1028.4	1017.4	1003.9	990.4	975.4	959.4
8500 kPa	1060.3	1050.9	1040.2	1028.7	1017.8	1004.2	990.6	975.7	959.7
9000 kPa	1060.6	1051.2	1040.6	1029.1	1018.1	1004.5	991	976	960
9500 kPa	1061	1051.6	1040.9	1029.4	1018.5	1004.8	991.2	976.3	960.3
10000 kPa	1061.4	1052	1041.3	1029.8	1018.9	1005.2	991.6	976.7	960.6
10500 kPa	1061.7	1052.3	1041.6	1030.2	1019.2	1005.5	992	977	960.9
11000 kPa	1062	1052.6	1041.9	1030.4	1019.5	1005.8	992.3	–	961.2
11400 kPa	–	–	–	–	–	–	–	–	961.5
11500 kPa	1062.3	1052.9	1042.2	1030.7	1019.9	1006.1	992.6	977.6	–
12000 kPa	1062.7	1053.3	1042.5	1031	1020.2	1006.5	992.9	977.9	961.8
12500 kPa	1063	1053.6	1042.9	1031.4	1020.5	1006.7	993.2	978.2	962.1
13000 kPa	1063.4	1054	1043.2	1031.7	1020.8	1007	993.5	978.5	962.4
13500 kPa	1063.7	1054.3	1043.5	1032	1021.1	1007.4	993.8	978.7	962.6
14000 kPa	1063.9	1054.7	1043.8	1032.4	1021.4	1007.6	994.1	979	963
14500 kPa	1064.3	1055	1044.2	1032.6	1021.7	1008	994.4	979.4	963.2
15000 kPa	1064.6	1055.3	1044.5	1032.9	1022	1008.2	994.7	979.6	963.4
15500 kPa	1064.9	1055.6	1044.8	1033.3	1022.3	1008.6	995	980	963.8
16000 kPa	1065.3	1055.9	1045.1	1033.6	1022.6	1009	995.3	980.2	964
16400 kPa	–	–	–	–	–	–	–	980.5	–
16500 kPa	1065.6	1056.2	1045.3	1033.9	1022.9	1009.3	995.6	–	964.3
17000 kPa	1065.9	1056.5	1045.7	1034.2	1023.2	1009.6	995.9	980.8	964.6
17400 kPa	–	–	–	–	–	–	996.2	–	–
17500 kPa	1066.2	1056.8	1046	1034.6	1023.5	1009.9	–	981.1	964.9
18000 kPa	1066.5	1057.1	1046.3	1034.9	1023.8	1010.2	996.5	981.4	965.2
18500 kPa	1066.8	1057.5	1046.7	1035.2	1024	1010.5	996.9	981.6	965.4
19000 kPa	1067.2	1057.8	1047	1035.5	1024.3	1010.9	997.1	982	965.7
19500 kPa	1067.5	1058.1	1047.3	1035.9	1024.7	1011.2	997.4	982.3	966
19900 kPa	–	–	–	–	–	–	997.6	–	–
20000 kPa	1067.9	1058.4	1047.7	1036.2	1025	1011.5	–	982.6	966.4
